From patent US20260251642A1, “MOLECULAR TENSION SENSOR WITH NUCLEIC ACIDS AND HUH-TAGS” (REGENTS OF THE UNIVERSITY OF MINNESOTA, priority 2022, published 2026)
“And” between values parts separate entries of the source, which are not always exact repeats. Equal values may be shown once.

Legend:
CHO-K1 cells = assay: RAD-TGT rupture and delivery, flow cytometry readout, CHO-K1 cells; assay type: cell-based; conditions: versus DMSO
Protocol: (§1) RAD-TGT Synthesis: TGTs were designed using previously characterized DNA sequences with a 5′ extension to allow for HUH binding. The following oligonucleotides were purchased from Integrated DNA Technologies. To prepare TGTs, anchor and ligand strands were mixed in a 1.1:1 ratio and then annealed in a 1× annealing buffer by heating at 98° C. for five minutes followed by cooling at room temperature for 1 hour. Excess bottom strand was used to mitigate any single stranded fluorescent top strand which may be internalized resulting in false positives. RAD-TGTs were then generated by reacting HUH-ligand of interest with the annealed duplex in a 2:1 ratio. […]
(§2) RAD-TGT Experimental Setup: Cells of interest were trypsinized for five minutes and transferred to Opti-MEM Reduced Serum Media. Cells were then counted using an automated cell counter. […] Cells were removed from wells and analyzed with a BD ACCURI C6 Plus Personal Flow Cytometer without further washing.
(§3) Statistical Analysis: In general, each experiment was performed on at least three separate days with 1-3 separated wells per day. […] The fluorescence data were concatenated to produce the dot plots. The medians of the normalized data for each biological replicate were used to overlay on the dot plot, and statistical significance was calculated using unpaired ANOVA as previously described.

U251 cells = assay: RAD-TGT rupture and delivery, flow cytometry readout, U251 cells; assay type: cell-based, human; conditions: versus DMSO
Protocol: as §1, §2, §3

integrins on U251 cells [1] = biological target: integrins on U251 cells
integrins on U251 cells [2] = assay: cell-based or functional assay
U251 and CHO-K1 cells = assay: Soluble RAD-TGT (echistatin) titration on U251 and CHO-K1 cells; assay type: cell-based
Protocol: FIG. 15. Soluble RAD-TGT titration highlights differences in integrin composition between cell lines. Soluble RAD-TGTs composed of the echistatin conjugated to fluorescently labeled ligand strand annealed to the non-anchor strand was added into the wells at varying concentrations ranging from […]. The total picomolar (pmol) range of oligo was from […]. Thus, the standard RAD-TGT experiment in the main text contained […] oligo assuming all oligo properly adhered, thus this is representative of experimental conditions. From this it was concluded that U251 cells internalize the soluble RAD-TGT at a greater rate than the CHO-K1 cells, […]

integrin receptors = conditions: cited from earlier work

Compound: Cc1ccc2c(c1)C(=O)[C@]1(O)CCN(c3ccc(N)cc3)C1=N2 [Para-amino-blebbistatin, reference compound]
- decrease in fluorescence upon treatment (CHO-K1 cells; CHO-K1 on WDV-Echi RAD-TGTs, 50 μM, 30 minutes pre-incubation): ~ 30%
- effect on median fluorescence, FN ligand (CHO-K1 cells; CHO-K1 on WDV-FN CY5-labeled RAD-TGTs): reduces median fluorescence
- decrease in fluorescence upon treatment (U251 cells; U251 on WDV-Echi RAD-TGTs, 50 μM, 30 minutes pre-incubation): ~ 30%
- effect on median fluorescence, FN ligand (U251 cells; U251 on WDV-FN CY5-labeled RAD-TGTs): reduces median fluorescence

Compound: WDV-echistatin integrin ligand (echistatin recombinantly expressed as a fusion protein with the HUH- (from UniProt P17347 131-179)
- fold difference in bound echistatin, U251 against CHO-K1 cells (integrins on U251 cells [1]): 3 fold and 4 fold
- increase in median fluorescence, 12 pN RAD-TGT, U251 cells, flow cytometry (integrins on U251 cells [2]): 12 fold
- increase in median fluorescence, 54 pN RAD-TGT, U251 cells, flow cytometry (integrins on U251 cells [2]): 7 fold

Compound: Echistatin
- difference in bound echistatin between U251 and CHO-K1 cells (U251 and CHO-K1 cells): three-to-four-fold
- affinity for a broad range of integrin receptors (integrin receptors): sub-nanomolar
